Assay results published in ChEMBL document CHEMBL3508693 (2016).

What was measured:
CYP2A6 [1] = target: T1, CYP2A6 (Homo sapiens, UniProt P11509); assay: in vitro; details: probe coumarine
T1 sequence (P11509 whole entry): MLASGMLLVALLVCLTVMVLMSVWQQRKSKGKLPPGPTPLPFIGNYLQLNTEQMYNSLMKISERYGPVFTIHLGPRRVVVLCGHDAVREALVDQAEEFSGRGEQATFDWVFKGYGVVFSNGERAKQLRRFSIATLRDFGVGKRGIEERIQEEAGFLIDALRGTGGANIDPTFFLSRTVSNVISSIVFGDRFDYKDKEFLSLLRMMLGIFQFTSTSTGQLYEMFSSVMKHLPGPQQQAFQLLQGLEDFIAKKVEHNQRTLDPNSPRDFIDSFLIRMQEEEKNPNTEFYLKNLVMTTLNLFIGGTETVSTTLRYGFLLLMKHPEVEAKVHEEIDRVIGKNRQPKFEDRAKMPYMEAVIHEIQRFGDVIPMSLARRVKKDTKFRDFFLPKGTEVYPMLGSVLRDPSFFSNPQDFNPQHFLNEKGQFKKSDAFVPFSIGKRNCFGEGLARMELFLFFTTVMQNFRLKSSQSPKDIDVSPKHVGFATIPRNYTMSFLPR

CYP2A6 [2] = target: T1, CYP2A6; assay: in vitro; details: probe coumarine; remark: listed apart in the source
CYP2C19 [3] = target: T2, CYP2C19 (Homo sapiens, UniProt P33261); assay: in vitro; details: probe (S)-mephenytoin (50 uM)
T2 sequence (P33261 whole entry): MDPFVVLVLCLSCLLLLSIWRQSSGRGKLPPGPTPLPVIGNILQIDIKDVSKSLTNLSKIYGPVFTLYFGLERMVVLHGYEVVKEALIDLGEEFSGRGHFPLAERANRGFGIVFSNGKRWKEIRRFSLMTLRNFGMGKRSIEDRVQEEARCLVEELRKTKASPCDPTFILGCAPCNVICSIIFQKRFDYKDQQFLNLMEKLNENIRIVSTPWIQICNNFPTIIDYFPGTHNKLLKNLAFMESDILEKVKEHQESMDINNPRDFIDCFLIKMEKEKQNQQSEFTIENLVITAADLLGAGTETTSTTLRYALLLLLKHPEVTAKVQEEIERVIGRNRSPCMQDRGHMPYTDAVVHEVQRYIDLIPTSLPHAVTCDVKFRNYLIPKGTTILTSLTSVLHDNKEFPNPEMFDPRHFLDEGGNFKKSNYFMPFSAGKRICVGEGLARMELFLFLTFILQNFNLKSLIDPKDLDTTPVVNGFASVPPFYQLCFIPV
Description: Inhibitory activity of 100 uM tranylcypromine on 49 Pmoles of cDNA-derived CYP2C19 enzyme in microsome prepared from human lymphoblastoid cell line

CYP2C19 [4] = target: T2, CYP2C19; assay: in vitro; details: probe (S)-mephenytoin (50 uM); remark: listed apart in the source
Description: Inhibitory activity of 100 uM tranylcypromine on 34 Pmoles of cDNA-derived CYP2C19 enzyme in microsome prepared from human lymphoblastoid cell line

CYP2A6 [5] = target: T1, CYP2A6; assay: in vitro; details: probe coumarine; remark: listed apart in the source
[6] = % of radioactivity recovered as M12 in faeces following oral administration of [14C] aliskiren hemifumarate at 100 mg.Kg-1 level in rat; assay type: ADME, organism-based, Albino HAN:WIST, Feces; details: in vivo
[7] = % of radioactivity recovered as M12 in urine following intravenous administration of [14C] aliskiren hemifumarate at 10 mg.Kg-1 level in rat; assay type: ADME, organism-based, Albino HAN:WIST; details: in vivo
[8] = % aliskiren hemifumarate recovered as M12 in faeces following single oral dose of 300 mg [14C]SPP100 studied in healthy men; assay type: ADME, organism-based, Feces; details: human, in vivo, at 300 mg
[9] = % aliskiren recovered as metabolite M12 in plasma following 10 day repeated oral administration of [14C] aliskiren hemifumarate at 100 mg.Kg-1 level studied in rat; assay type: ADME, organism-based, Albino HAN:WIST; details: in vivo, 240 h
[10] = % of radioactivity recovered as M12 in faeces following intravenous administration of [14C] aliskiren hemifumarate at 10 mg.Kg-1 level in rat; assay type: ADME, organism-based, Albino HAN:WIST, Feces; details: in vivo
[11] = % aliskiren hemifumarate recovered as M12 in urine and faeces following single oral dose of 300 mg [14C]SPP100 studied in healthy men; assay type: ADME, organism-based, Urine/Feces; details: human, in vivo, at 300 mg
[12] = % of radioactivity recovered as M12 in plasma following intravenous administration of [14C] aliskiren hemifumarate at 10 mg.Kg-1 level in rat; assay type: ADME, organism-based, Albino HAN:WIST; details: in vivo
[13] = % aliskiren hemifumarate recovered as M12 in urine following single oral dose of 300 mg [14C]SPP100 studied in healthy men; assay type: ADME, organism-based; details: human, in vivo
[14] = % of radioactivity recovered as M12 in plasma following oral administration of [14C] aliskiren hemifumarate at 100 mg.Kg-1 level in rat; assay type: ADME, organism-based, Albino HAN:WIST; details: in vivo
[15] = % aliskiren recovered as metabolite M12 in urine following 10 day repeated oral administration of [14C] aliskiren hemifumarate at 100 mg.Kg-1 level studied in rat; assay type: ADME, organism-based, Albino HAN:WIST; details: in vivo, 240 h
[16] = % of radioactivity recovered as M12 in urine following oral administration of [14C] aliskiren hemifumarate at 100 mg.Kg-1 level in rat; assay type: ADME, organism-based, Albino HAN:WIST; details: in vivo
[17] = % aliskiren recovered as metabolite M12 in faeces following 10 day repeated oral administration of [14C] aliskiren hemifumarate at 100 mg.Kg-1 level studied in rat; assay type: ADME, organism-based, Albino HAN:WIST, Feces; details: in vivo, 240 h

| Compound recovery [6] | Compound recovery [8] | Compound recovery [9] | Compound recovery [11] | Compound recovery [13] | Compound recovery [15] | Structure (SMILES) | inhibition at 100 µM (CYP2A6 [1]) | inhibition at 100 µM (CYP2A6 [2]) | inhibition at 100 µM (CYP2C19 [3]) | inhibition at 100 µM (CYP2C19 [4]) | inhibition at 100 µM (CYP2A6 [5]) | Compound recovery [7] | Compound recovery [10] | Compound recovery [12] | Compound recovery [14] | Compound recovery [16] | Compound recovery [17] |
| --- | --- | --- | --- | --- | --- | --- | --- | --- | --- | --- | --- | --- | --- | --- | --- | --- | --- |
|  |  |  |  |  |  | N[C@@H]1C[C@H]1c1ccccc1.N[C@H]1C[C@@H]1c1ccccc1 [TRANYLCYPROMINE] | 99% | 97% | 96% | 97% | 98% |  |  |  |  |  |  |
| <= 2% | < 1% | OUTCOME = Not detected | < 1% | OUTCOME = Not detected | OUTCOME = Not detected | COCCCOc1cc(C[C@@H](C[C@H](NC(C)=O)[C@@H](O)C[C@H](C(=O)NCC(C)(C)C(N)=O)C(C)C)C(C)C)ccc1OC |  |  |  |  |  | OUTCOME = Not detected or not investigated | OUTCOME = Not detected or not investigated | OUTCOME = Not detected or not investigated | OUTCOME = Not detected or not investigated | OUTCOME = Not detected or not investigated | OUTCOME = Observed, VALUE = Measurable quantities |
